Results on ten compounds are retold here after US20230151003A1, “COMPOUNDS AND METHODS OF USE” (Exelixis, Inc., priority 2020, published 2023).

One assay deals with T1, AXL (Homo sapiens, UniProt P30530).
T1 construct: endogenous in cells; host or cells: A-172 glioblastoma cells (ATCC #CRL-1620)
T1 sequence (P30530 26-894): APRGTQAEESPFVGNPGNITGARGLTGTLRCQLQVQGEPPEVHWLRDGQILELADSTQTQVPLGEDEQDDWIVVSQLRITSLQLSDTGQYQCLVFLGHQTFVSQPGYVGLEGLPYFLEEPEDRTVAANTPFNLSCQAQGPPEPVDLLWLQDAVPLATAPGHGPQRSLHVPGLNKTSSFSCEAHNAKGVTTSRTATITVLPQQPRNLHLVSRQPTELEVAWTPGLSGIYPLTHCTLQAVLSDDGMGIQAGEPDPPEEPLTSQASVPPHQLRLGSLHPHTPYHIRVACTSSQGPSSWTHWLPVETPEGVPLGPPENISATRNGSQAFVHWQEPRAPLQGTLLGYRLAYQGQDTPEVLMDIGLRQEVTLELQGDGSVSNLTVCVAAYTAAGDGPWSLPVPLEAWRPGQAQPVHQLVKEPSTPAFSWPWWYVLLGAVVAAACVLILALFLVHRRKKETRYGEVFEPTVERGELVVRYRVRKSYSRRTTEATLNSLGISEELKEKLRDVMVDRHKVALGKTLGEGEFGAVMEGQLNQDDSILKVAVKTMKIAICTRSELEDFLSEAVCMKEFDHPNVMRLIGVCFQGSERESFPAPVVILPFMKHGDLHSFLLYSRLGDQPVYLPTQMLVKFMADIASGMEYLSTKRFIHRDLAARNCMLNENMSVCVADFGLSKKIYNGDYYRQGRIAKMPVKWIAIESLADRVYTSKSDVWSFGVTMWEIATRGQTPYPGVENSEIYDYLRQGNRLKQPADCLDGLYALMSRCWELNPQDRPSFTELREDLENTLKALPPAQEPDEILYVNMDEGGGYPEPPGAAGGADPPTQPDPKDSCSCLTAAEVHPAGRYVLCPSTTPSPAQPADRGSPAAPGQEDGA
Description: AXL autophosphorylation ELISA in A-172 cells. It is filed as cell-based. The following applies: Table 3 Cellular Activities, Gas6-stimulated, phospho-AXL ELISA. A digest of the protocol:
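A-172 glioblastoma cells serum-starved 24 h, treated 1 h with compounds (8-point dose curve, 0.3% DMSO), then stimulated with 1 μg/mL Gas6 for 15 min. Lysate phospho-AXL quantified by ELISA against a standard; IC50 from 4-parameter logistic fit, normalised to DMSO and reference-inhibitor controls.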
On the technique in general: ELISA stands for enzyme-linked immunosorbent assay.

In another assay the target is Met (Homo sapiens, UniProt P08581). Description: Met autophosphorylation ELISA in PC-3 cells. Conditions: Table 3 Cellular Activities, HGF-stimulated, phospho-Met ELISA, read-out: c-Met IC50. Set-up: endogenous in cells; host or cells: PC-3 prostate cancer cells (ATCC #CRL-1435). It is filed as cell-based. The gist of the method:
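Serum-starved (3 h) PC-3 cells pre-incubated 1 h with compound (8-point dose curve, 0.3% DMSO), then stimulated with 100 ng/mL recombinant human HGF for 10 min. Lysate phospho-Met (panTyr) measured by sandwich ELISA; IC50 from 4-parameter logistic fit, normalised to DMSO (100%) and reference-inhibitor (0%) controls.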

Structures can show the parent of a compound that is named as a salt.

Met, sequence (P08581 25-1390): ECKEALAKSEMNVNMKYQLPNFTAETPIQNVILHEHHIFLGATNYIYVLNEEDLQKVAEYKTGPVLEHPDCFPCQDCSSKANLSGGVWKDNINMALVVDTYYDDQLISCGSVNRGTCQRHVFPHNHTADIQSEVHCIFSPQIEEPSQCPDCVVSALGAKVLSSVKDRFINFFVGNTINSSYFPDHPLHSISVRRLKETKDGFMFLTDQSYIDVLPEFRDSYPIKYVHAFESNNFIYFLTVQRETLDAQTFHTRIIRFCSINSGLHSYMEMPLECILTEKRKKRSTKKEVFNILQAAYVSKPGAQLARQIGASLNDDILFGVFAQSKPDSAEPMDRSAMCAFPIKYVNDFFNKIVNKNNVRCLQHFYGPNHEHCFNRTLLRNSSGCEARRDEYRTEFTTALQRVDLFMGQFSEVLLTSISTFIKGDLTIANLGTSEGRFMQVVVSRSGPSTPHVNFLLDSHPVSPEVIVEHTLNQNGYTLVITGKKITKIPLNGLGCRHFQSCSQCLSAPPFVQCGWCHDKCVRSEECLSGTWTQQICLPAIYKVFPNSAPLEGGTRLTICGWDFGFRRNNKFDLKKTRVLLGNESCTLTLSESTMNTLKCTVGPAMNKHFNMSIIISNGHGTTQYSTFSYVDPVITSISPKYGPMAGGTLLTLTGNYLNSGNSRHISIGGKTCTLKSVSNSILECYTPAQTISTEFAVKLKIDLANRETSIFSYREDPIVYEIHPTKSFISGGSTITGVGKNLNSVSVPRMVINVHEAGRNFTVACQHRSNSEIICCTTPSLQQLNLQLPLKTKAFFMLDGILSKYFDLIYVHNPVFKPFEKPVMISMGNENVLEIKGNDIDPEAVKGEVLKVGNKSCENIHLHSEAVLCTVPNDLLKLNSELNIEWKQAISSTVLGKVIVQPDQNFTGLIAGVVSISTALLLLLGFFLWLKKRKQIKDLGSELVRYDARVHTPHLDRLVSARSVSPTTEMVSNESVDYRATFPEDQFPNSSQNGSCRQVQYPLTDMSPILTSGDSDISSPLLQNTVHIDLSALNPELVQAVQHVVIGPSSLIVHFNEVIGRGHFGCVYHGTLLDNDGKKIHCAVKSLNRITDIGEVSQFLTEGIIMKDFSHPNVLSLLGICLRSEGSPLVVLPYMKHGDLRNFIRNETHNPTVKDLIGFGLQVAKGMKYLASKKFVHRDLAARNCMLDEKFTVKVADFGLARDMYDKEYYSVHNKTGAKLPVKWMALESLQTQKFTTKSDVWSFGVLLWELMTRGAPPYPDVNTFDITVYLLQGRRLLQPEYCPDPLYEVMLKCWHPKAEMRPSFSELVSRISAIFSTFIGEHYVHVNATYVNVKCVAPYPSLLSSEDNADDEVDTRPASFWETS

Take `COc1cc2nccc(Oc3ccc(NC(=O)c4c(C)ncc(-c5cc(C)cs5)c4O)cc3F)c2nc1OC` [Compound 125, N-[4-[(6,7-Dimethoxy-1,5-naphthyridin-4-yl)oxy]-3-fluorophenyl]-4-hydroxy-2-methyl-5-(4-methylthiophen-2-yl)pyridine-3-carboxamide]: the IC50 on AXL and at Met was no more than 100 nM throughout.

In the case of `C=C(C)c1ccc(-c2c(C)ncc(C(=O)Nc3ccc(Oc4ccnc5cc(OC)c(OC)nc45)c(F)c3)c2O)o1` [Compound 152, N-[4-[(6,7-Dimethoxy-1,5-naphthyridin-4-yl)oxy]-3-fluorophenyl]-4-hydroxy-6-methyl-5-(5-prop-1-en-2-ylfuran-2-yl)pyridine-3-carboxamide], the IC50 at AXL and on Met was 100 to 300 nM throughout.

`COc1cc2nccc(Oc3ccc(NC(=O)c4cnc(C)c(-c5ccc(C6CC6)o5)c4O)cc3F)c2nc1OC` [Compound 155A, 5-(5-Cyclopropylfuran-2-yl)-N-[4-[(6,7-dimethoxy-1,5-naphthyridin-4-yl)oxy]-3-fluorophenyl]-4-hydroxy-6-methylpyridine-3-carboxamide hydrochloride]: the IC50 on AXL and at Met was no more than 100 nM throughout.

As to `COc1cnc2c(Oc3ccc(NC(=O)c4cnc(C)c(-c5ccc(C)o5)c4O)cc3F)ccnc2c1` [Compound 97, N-[3-Fluoro-4-[(7-methoxy-1,5-naphthyridin-4-yl)oxy]phenyl]-4-hydroxy-6-methyl-5-(5-methyl-2-furyl)pyridine-3-carboxamide], the results for the IC50 on AXL and at Met were no more than 100 nM and 100 to 300 nM, respectively.

`COc1cc2nccc(Oc3ccc(NC(=O)c4c(C)nc(C)c(-c5cc(C)cs5)c4O)cc3F)c2nc1OC` [Compound 137, N-[4-[(6,7-Dimethoxy-1,5-naphthyridin-4-yl)oxy]-3-fluorophenyl]-4-hydroxy-2,6-dimethyl-5-(4-methylthiophen-2-yl)pyridine-3-carboxamide]: the IC50 on AXL and at Met was no more than 100 nM in each case.

`COc1cc2nccc(Oc3ccc(NC(=O)c4c(C)nc(C)c(-c5ccoc5)c4O)cc3F)c2nc1OC` [Compound 112, N-[4-[(6,7-Dimethoxy-1,5-naphthyridin-4-yl)oxy]-3-fluoro-phenyl]-5-(3-furyl)-4-hydroxy-2,6-dimethyl-pyridine-3-carboxamide]: the IC50 against AXL and at Met was no more than 100 nM in each case.

In the case of `COc1cnc2c(Oc3ccc(NC(=O)c4c(C)n(C)c(C)c(-c5cccs5)c4=O)cc3F)ccnc2c1` [Compound 166, N-[3-Fluoro-4-[(7-methoxy-1,5-naphthyridin-4-yl)oxy]phenyl]-1,2,6-trimethyl-4-oxo-5-thiophen-2-ylpyridine-3-carboxamide], the IC50 at AXL and on Met was no more than 100 nM in each case.

For the compound `COCc1nc(C)c(-c2cccs2)c(O)c1C(=O)Nc1ccc(Oc2ccnc3cc(OC)c(OC)nc23)c(F)c1` [Compound 115, N-[4-[(6,7-Dimethoxy-1,5-naphthyridin-4-yl)oxy]-3-fluorophenyl]-4-hydroxy-2-(methoxymethyl)-6-methyl-5-thiophen-2-ylpyridine-3-carboxamide], the half-inhibitory concentration (IC50) on AXL and at Met was no more than 100 nM throughout.

In the case of `C=Cc1ccc(-c2c(C)ncc(C(=O)Nc3ccc(Oc4ccnc5cc(OC)c(OC)nc45)c(F)c3)c2O)o1` [Compound 151, N-[4-[(6,7-Dimethoxy-1,5-naphthyridin-4-yl)oxy]-3-fluorophenyl]-5-(5-ethenylfuran-2-yl)-4-hydroxy-6-methylpyridine-3-carboxamide], the IC50 on AXL and at Met was no more than 100 nM each time.

Turning to `COc1cc2nccc(Oc3ccc(NC(=O)c4c(C)ncc(-c5cccs5)c4O)cc3F)c2nc1OC` [Compound 123, N-[4-[(6,7-Dimethoxy-1,5-naphthyridin-4-yl)oxy]-3-fluorophenyl]-4-hydroxy-2-methyl-5-thiophen-2-ylpyridine-3-carboxamide], the IC50 against AXL and on Met was no more than 100 nM throughout.
